Source: patent publication US20230330064A1, “TYROSINE, TRYPTOPHAN AND PHENYLALANINE AS mTOR AGONISTS MEDIATING PROTEASOME DYNAMICS, COMPOSITIONS, METHODS AND USES THEREOF IN THERAPY, AND PROGNOSTIC METHODS FOR DRUG-RESISTANCE” (Technion Research & Development Foundation Limited, priority 2020, published 2023)

What was measured:
tumor = settings: in vivo; cited from earlier work
[1] = system: human bladder cancer T24 cell line; settings: cited from earlier work
[2] = biological target: L-type amino acid transporter 1 (LAT-1) (Homo sapiens, UniProt Q01650); settings: cited from earlier work
26S proteasome = assay: Proteasome subcellular localization in cultured cells (immunofluorescence, western blot of nuclear fractions); format: cell-based; settings: for proteasome localization without exogenous starvation: non-stressed cells, complete medium; for starvation-induced proteasome translocation from the nucleus to the cytosol: substance added to amino acid starvation medium, 8 h
Procedure: (§1) Cells were seeded on glass cover slips for 36 h. Following the indicated treatments, they were fixed with 4% PFA for 15 min, washed with (phosphate-buffered saline) PBS and incubated in PBS containing 10% goat serum for 1h at room temperature, followed by 2 h incubation with the indicated primary antibody. Following extensive wash with PBS, the fixed cells were incubated with the relevant secondary antibody for 1 h, washed and mounted. Images were acquired using Zeiss LSM 700 confocal microscope (Zeiss, Oberkochen, Germany).
The proteasome subunits α6, β1, and PSMD1 were visualized via indirect immunofluorescence, using primary and secondary antibodies listed under Key Resources Table. To observe the proteasome in live cells, we expressed the cDNAs of the β4, Rpn2, Rpn6, and Rpn13 proteasome subunits C-terminally fused with GFP. Photoconversion of proteasome-fused Dendra2 was carried out as previously described (McKinney et al., 2009 Nat Methods. 131-133).
Cells were incubated for 20 min in fractionation buffer [20 mM HEPES pH 7.3, 10 mM KCl, 5 mM ATP, 5 mM MgCl2, and protease inhibitor cocktail (Roche)], followed by the addition of NP-40 (to 0.1%). They were then mixed thoroughly and centrifuged at 1,000×g for 5 min. The supernatant was collected as cytosolic fraction, and the pellet (nuclei) was washed twice with PBS. To dissolve the nuclear pellet, fractionation buffer supplemented with 0.5% sodium deoxycholate was added followed by sonication.
(§2) Cells were washed twice with ice cold PBS and scraped into lysis buffer (50 mM Tris-HCl, pH 7.4, 130 mM NaCl, 0.5% NP-40) supplemented with freshly added protease inhibitor cocktail, 5 mM ATP, 10 mM iodoacetamide, and 5 mM N-ethyl maleimide. Protein concentration was measured by the BCA assay according to the manufacturer's instructions (Pierce, Rockford, IL). 30 μg of cellular protein were resolved via SDS-PAGE, transferred to a nitrocellulose membrane and immunoblotted with the appropriate antibody.

[3] = biological target: proteasome subunit beta type-5 (PSMB5) (Homo sapiens, UniProt P20618+P28074); settings: cited from earlier work
ubiquitin adducts = assay: Western blot for ubiquitin adducts; format: cell-based; settings: starved cells
Procedure: FIG. 5E. Western blot for ubiquitin adducts of extracts of cells treated as indicated. Intensities relative to control are presented.
as §2

cellular proteins [4] = assay: Degradation of radiolabeled cellular proteins; format: cell-based; settings: starved cells
Procedure: Cells were labeled with […] methionine and cysteine (20 μCi/ml) for 16 h. This was followed extensive washing and further incubation in a medium containing 2 mM of the two unlabeled amino acids for 8 h. Degradation rates were assessed by determining the release of labeled amino acids to the incubation medium relative to the radioactivity remained in the cellular proteins (using Trichloroacetic acid precipitation to separate between the two) (Gropper et al., 1991, JPEN J Parenter Enteral Nutr 15, 48-53.).

proteasome = assay: Live imaging of proteasome activity probe Me4BodipyFL-Ahx3Leu3VS in cells; format: cell-based; settings: added to the starvation medium
Procedure: Live cell proteasome activity was followed as previously described (Berkers et al., 2007, Mol Pharm; 4(5):739-48.). In brief, Me4BodipyFL-Ahx3Leu3VS was added to the medium to a final concentration of 1 μM. Following incubation for 15 min, the cells were visualized by a Zeiss LSM 700 confocal microscope. In vitro proteasome activity assay was carried out as previously described (Braten et al., 2016). In brief, cellular fractions were incubated at 37° C. for 30 min with 5 μM Suc-LLVY-AMC (Succinyl-Lu-Leu-Val-Tyr-amido-4-methylcoumarin) in a reaction buffer (40 mM Tris-HCl pH 7.2, 2 mM DTT, 5 mM MgCl2, 10 mM creatine phosphate, 0.1 mg/ml creatine phosphate kinase, 5 mM ATP). Reactions were stopped by adding 1% SDS, and fluorescence was measured at 360 nm/460 nm (ex/em).

[5] = Amino acids level measurement (LC-MS); format: cell-based; settings: Torin1-treated cells
Procedure: Metabolic analysis was carried out as previously described (MacKay et al., 2015). Briefly, cells were rapidly washed 3 times with ice-cold PBS and extracted with an aqueous solution of 50% Methanol, and 30% Acetonitrile. Samples were centrifuged at 16,000×g for 10 min at 4° C., and the supernatants were analyzed using HPLC-MS (Q-Exactive Orbitrap Mass Spectrometer (Thermo Scientific) coupled to Thermo Scientific UltiMate 3000 HPLC system). The HPLC setup consisted of a ZIC-pHILIC column (SeQuant, 150×2.1 mm, 5 μm, Merck) with a ZIC-pHILIC guard column (SeQuant, 20×2.1 mm). The aqueous mobile phase solvent was 20 mM ammonium carbonate adjusted to pH 9.4 with 0.1% ammonium hydroxide. The organic mobile phase was acetonitrile. […] All metabolites were detected across a mass range of 75-1,000 m/z using the Q-Exactive mass spectrometer at a resolution of 35,000 (at 200 m/z) with electrospray ionization and polarity switching mode. […] The peak areas of different Amino Acids were determined using Thermo TraceFinder software through which metabolites were identified by the exact mass of the singly charged ion and by known retention time on the HPLC column. Commercially available standard compounds had been analyzed before to determine ion masses and retention times on the ZIC-pHILIC column. Protein quantitation based on the Lowry method was performed for normalization.

exportin-1 = biological target: T1, exportin-1 (Homo sapiens, UniProt O14980); assay: Nuclear export of exportin-1 substrates (p65, APC, NES-GFP) in HeLa cells; format: cell-based; settings: 8 h
T1 construct: endogenous in cells; host or cells: HeLa
Procedure: FIG. 4G. HeLa cells were incubated under the indicated conditions, and the β4 subunit of the proteasome as well as the p65 subunit of NF-κB—which is a CRM1 substrate—were visualized.
FIG. 4H. HeLa cells were incubated under the indicated conditions, and the β4 subunit of the proteasome as well as the CRM1 substrate APC (adenomatous polyposis coli) were visualized.
FIG. 4I. HeLa cells infected with GFP fused to a nuclear export signal (NES) were incubated for 8h under the indicated conditions. The GFP was visualized.
as §1

cellular proteins [6] = assay: Proteomic analysis of cellular protein levels; format: cell-based, human; settings: amino acid starvation
Procedure: 2-3 mg of cell extract protein in 8 M Urea and 100 mM ammonium bicarbonate, were incubated with DTT (2.8 mM; 30 min at 60° C.), modified with iodoacetamide (8.8 mM; 30 min at room temperature in the dark), and digested (overnight at 37° C.) with modified trypsin (Promega; 1:50 enzyme-to-substrate ratio) in 2 M Urea and 25 mM ammonium bicarbonate. Additional second trypsinization was carried out for 4 hours. The tryptic peptides were desalted using Sep-Pak C18 (Waters) and dried. 10 μg of protein were used for proteome analysis as described under Mass spectrometry.
Tryptic peptides were analyzed by LC-MS/MS using a Q Exactive plus mass spectrometer (Thermo Fisher Scientific) fitted with a capillary HPLC (easy nLC 1000, Thermo). […]
The mass spectrometry raw data were analyzed by the MaxQuant software (version 1.4.1.2, http://www.maxquant.org) for peak picking and quantification. […] The MaxQuant software was used for label-free semi-quantitative analysis [based on extracted ion currents (XICs) of peptides], enabling quantification from each LC/MS run for each peptide identified in any of the experiments. In samples that were SILAC-labeled, quantification was also carried out using the MaxQuant software. […]

tumors = assay: Tumor model in mice, YWF versus various concentrations of F; format: in vivo; settings: various concentrations up to 45 mM
Procedure: The anti-tumorigenic effect of the indicated treatments was examined in vivo, using a tumor model in mice.
The inventors next aimed to assess the anti-tumorigenic effect of the above treatments in vivo, using a tumor model in mice. Following tumor formation, each group was treated with a different treatment, and the size of tumors was eventually compared relative to the control group (QLR).

cancer cells = assay: Cell viability of stressed (starved) and non-stressed cancer cells, YWF versus 45 mM F or W
Procedure: Since tumor cells are inherently stressed—due to high metabolic demands and poor perfusion of nutrients and oxygen, starved cells in culture were used in order to simulate the effect of the different treatments. Similarly, to simulation of the effect of each treatment on “normal” tissues in vivo—which are not stressed—the same amino acid(s) were added to non-starved cells in culture.

Sequence of L-type amino acid transporter 1 (LAT-1) (Q01650 whole entry): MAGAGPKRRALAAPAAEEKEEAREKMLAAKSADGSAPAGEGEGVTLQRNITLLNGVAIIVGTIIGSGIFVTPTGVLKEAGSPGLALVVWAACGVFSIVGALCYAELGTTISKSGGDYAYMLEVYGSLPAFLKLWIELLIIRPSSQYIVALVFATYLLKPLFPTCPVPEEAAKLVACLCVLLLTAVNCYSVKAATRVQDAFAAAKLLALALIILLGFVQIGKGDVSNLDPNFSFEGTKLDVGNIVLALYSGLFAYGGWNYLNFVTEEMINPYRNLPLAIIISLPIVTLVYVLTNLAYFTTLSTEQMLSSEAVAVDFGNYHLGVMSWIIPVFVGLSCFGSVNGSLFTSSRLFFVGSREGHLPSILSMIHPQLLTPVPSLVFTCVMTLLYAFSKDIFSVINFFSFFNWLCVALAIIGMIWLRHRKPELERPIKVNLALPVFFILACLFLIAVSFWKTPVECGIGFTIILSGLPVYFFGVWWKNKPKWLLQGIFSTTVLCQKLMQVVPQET
Sequence of L-type amino acid transporter 1 (LAT-1) (P08195 102-630 partner): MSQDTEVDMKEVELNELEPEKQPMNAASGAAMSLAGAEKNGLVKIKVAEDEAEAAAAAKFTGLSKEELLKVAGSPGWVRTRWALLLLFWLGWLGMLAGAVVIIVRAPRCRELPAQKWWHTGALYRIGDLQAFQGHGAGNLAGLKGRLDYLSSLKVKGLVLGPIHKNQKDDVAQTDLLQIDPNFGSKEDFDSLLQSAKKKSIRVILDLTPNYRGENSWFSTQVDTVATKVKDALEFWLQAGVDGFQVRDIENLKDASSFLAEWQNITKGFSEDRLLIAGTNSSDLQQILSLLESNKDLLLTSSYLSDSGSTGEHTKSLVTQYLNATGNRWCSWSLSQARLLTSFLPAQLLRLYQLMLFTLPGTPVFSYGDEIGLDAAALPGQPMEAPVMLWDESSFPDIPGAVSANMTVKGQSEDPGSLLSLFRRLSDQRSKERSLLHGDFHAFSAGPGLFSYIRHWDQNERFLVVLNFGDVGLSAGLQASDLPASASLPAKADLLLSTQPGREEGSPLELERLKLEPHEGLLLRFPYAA
T1 sequence (O14980 whole entry): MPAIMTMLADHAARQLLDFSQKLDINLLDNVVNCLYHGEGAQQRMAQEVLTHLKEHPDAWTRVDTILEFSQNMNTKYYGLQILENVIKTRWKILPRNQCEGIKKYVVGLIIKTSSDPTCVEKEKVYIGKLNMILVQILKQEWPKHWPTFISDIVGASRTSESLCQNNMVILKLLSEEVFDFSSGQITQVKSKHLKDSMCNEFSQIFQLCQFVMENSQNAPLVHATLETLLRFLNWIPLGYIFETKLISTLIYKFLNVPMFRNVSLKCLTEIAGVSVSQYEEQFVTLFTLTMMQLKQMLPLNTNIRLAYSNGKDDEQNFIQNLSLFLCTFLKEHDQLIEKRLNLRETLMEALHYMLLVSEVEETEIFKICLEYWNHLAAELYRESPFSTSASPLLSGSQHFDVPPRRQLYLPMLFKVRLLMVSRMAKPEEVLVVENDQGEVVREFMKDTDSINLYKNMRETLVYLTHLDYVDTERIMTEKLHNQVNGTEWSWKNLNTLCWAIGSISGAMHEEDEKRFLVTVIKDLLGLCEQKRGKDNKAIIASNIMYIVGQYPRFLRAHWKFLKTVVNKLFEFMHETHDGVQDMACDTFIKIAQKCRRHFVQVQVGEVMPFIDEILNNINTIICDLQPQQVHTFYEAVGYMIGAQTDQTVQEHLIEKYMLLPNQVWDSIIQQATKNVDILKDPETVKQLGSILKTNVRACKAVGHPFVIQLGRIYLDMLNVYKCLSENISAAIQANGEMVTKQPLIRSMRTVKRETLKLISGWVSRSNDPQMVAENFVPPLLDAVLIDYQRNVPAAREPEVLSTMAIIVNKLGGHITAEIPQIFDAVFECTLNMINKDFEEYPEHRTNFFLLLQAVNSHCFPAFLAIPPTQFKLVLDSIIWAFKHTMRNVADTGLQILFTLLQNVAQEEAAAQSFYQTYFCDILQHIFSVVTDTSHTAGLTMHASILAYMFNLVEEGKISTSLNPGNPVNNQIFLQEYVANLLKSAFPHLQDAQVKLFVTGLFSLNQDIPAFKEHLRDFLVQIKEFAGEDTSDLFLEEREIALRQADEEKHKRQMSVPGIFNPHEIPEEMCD

N[C@@H](Cc1cccc(Oc2ccc3ccccc3c2)c1)C(=O)O [3-(2-naphthyloxy)-L-phenylalanine]
tumor growth (tumor): inhibition of tumor growth
T24 cell line proliferation [1]: inhibition
intracellular 14C-Leucine [2]: reduction

Cn1cnc(N)c2ncnc1-2 [3-MA, 3-methyl adenine]
proteasome localization without exogenous starvation (26S proteasome): induced the same effect

CC(C)C[C@H](NC(=O)CNC(=O)c1cc(Cl)ccc1Cl)B(O)O [Ixazomib, N^2-(2,5-Dichlorobenzoyl)-N-[(1R)-1-(dihydroxyboryl)-3-methylbutyl]glycinamide]
mode of PSMB5 inhibition [3]: selectively and reversibly inhibits

CCC(=C/[C@H](C)C/C=C/C(C)=C/[C@@H](C)C(=O)[C@@H](C)[C@H](O)[C@@H](C)C/C(C)=C/C(=O)O)/C=C/[C@@H]1OC(=O)C=C[C@@H]1C [LMB, Leptomycin B]
degradation and depletion of ubiquitin adducts (ubiquitin adducts): inhibits degradation and depletion of ubiquitin adducts
starvation-induced stimulation of protein breakdown (cellular proteins [4]): inhibition of starvation-induced stimulation of protein breakdown
migration of proteasomal activity from the nucleus (proteasome): inhibits the migration of proteasomal activity from the nucleus
proteasome distribution in cells lacking NUP93 (26S proteasome; NUP93 silenced, starvation): neither YWF nor LMB had a significant effect on its distribution
proteasome localization without exogenous starvation (26S proteasome): nuclear accumulation of the proteasome
starvation-induced proteasome translocation from the nucleus to the cytosol (26S proteasome): inhibition of the translocation
gain in amino acids produced by Torin1 [5]: significantly inhibits the gain in amino acids
cellular distribution of GFP fused to nuclear export signal (NES) (exportin-1): leads to nuclear accumulation
starvation-induced reduction in the level of ~900 proteins (cellular proteins [6]): prevented

N[C@@H](Cc1ccccc1)C(=O)O [Phe, Phenylalanine]
benefit on tumor growth relative to control group (QLR) (tumors): did not result in any benefit
starvation-induced proteasome translocation from the nucleus to the cytosol (26S proteasome): significant effect
elimination of stressed cancerous cells in culture (cancer cells): clearly inferior to the mixture of YWF

CCC(=O)N1CCN(c2ccc(-n3c(=O)ccc4cnc5ccc(-c6cnc7ccccc7c6)cc5c43)cc2C(F)(F)F)CC1 [Torin1]
proteasome localization without exogenous starvation (26S proteasome): induces nuclear export of both 20S and 19S sub-complexes

N[C@@H](Cc1c[nH]c2ccccc12)C(=O)O [Trp, Tryptophan]
starvation-induced proteasome translocation from the nucleus to the cytosol (26S proteasome): significant effect

N[C@@H](Cc1ccc(O)cc1)C(=O)O [Tyr, 4-hydroxyphenylalanine]
starvation-induced proteasome translocation from the nucleus to the cytosol (26S proteasome): significant effect

CC(C)C[C@H](NC(=O)[C@H](CCc1ccccc1)NC(=O)CN1CCOCC1)C(=O)N[C@@H](Cc1ccccc1)C(=O)N[C@@H](CC(C)C)C(=O)[C@@]1(C)CO1 [carfilzomib, (2S)-4-Methyl-N-[(2S)-1-[[(2S)-4-methyl-1-[(2R)-2-methyloxiran-2-yl]-1-oxopentan-2-yl]amino]-1-oxo-3-phenylpropan-2-yl]-2-[[(2S)-2-[(2-morpholin-4-ylacetyl)amino]-4-phenylbutanoyl]amino]pentanamide]
mode of PSMB5 inhibition [3]: irreversibly

C[C@@H]1C[C@@H]([C@H](O)CC2CC(=O)NC(=O)C2)C(=O)[C@@H](C)C1 [cycloheximide]
reappearance of the proteasome in the nucleus after amino acid replenishment (26S proteasome; 8 h starvation, then replenishment in presence of the substance): does not prevent the reappearance of the proteasome in the nucleus

Ivermectin
proteasome localization without exogenous starvation (26S proteasome): cytosolic accumulation

Tunicamycin
proteasome localization without exogenous starvation (26S proteasome): inducing proteasome nuclear export
